Laboratory results as given in patent US10206955B2, “Compositions of ascorbic acid and bone morphogenetic protein 4 (BMP-4) for cell growth and uses related thereo” (EMORY UNIVERSITY, priority 2014, dated 2019).

What was measured:
[1] = test system: mouse tail-tip fibroblasts (MTTFs); experiment: Spontaneous contraction of miRNA-transfected MTTFs after adding AA and BMP4; format: cell-based; settings: AA and BMP4 added one day after miR-transfection; between 4-6 days
Description: (§1) To enhance the reprogramming potential of miRNAs, AA and BMP4 were added one day after miR-transfection (FIG. 1A). Between 4-6 days, spontaneously contracting cells appeared in groups treated with […], miR-208b-3p, or miR-499-5p, but not with miR-208a-3p and miR-208b-5p or all miRNA. The latter groups were excluded from further experiments. To further confirm the results, MTTFs were isolated from aMHC-GFP reporter mice (aMHC-GFP-MTTFs) and quantified GFP+ cells after treating with […], miR-208b-3p, or miR-499-5p in combination with AA and BMP4. […] TNNT2+ cells occupied 1.8±0.6% of MTTFs treated with miR-208b-3p, AA and BMP4 by flow cytometry analyses. This reprogramming rate is smaller than the number of aMHC-GFP+ cells because TNNT2 is a more specific and mature marker for CMs.
(§2) Mouse tail-tip fibroblasts (MTTFs) isolated from 1-4 month old transgenic mice carrying a GFP reporter driven by αMHC or human ubiquitin C (UBC) promoters were cultured in DMEM/F-12 (Invitrogen) containing 10% FBS (Atlanta Biologicals), 1% Glutamax (Invitrogen), 1% non-essential amino acids (Invitrogen) and 1% Antibiotic-Antimycotic (Invitrogen). αMHC-GFP transgenic mice were kindly given by Dr. Mark Sussman (San Diego State University) and UBC-GFP mice (C57BL/6-Tg(UBC-GFP)30Scha/J) were purchased from the Jackson Laboratory. After 3-5 passages, MTTFs were frozen until use. MTTFs at 70-80% of confluence were transfected with a synthetic miRNA mimic (20 nM), miR-1a-2-5p (Qiagen, MSY0017047, 5′-[…]-3′)(SEQ ID NO: 135), miR-208a-3p (Qiagen, MSY0000520, 5′-[…]-3′)(SEQ ID NO: 136), miR-208b-3p (Qiagen, MSY0004939, 5′-[…]-3′)(SEQ ID NO: 1), miR-208b-5p (Qiagen, MSY0017280, 5′-[…]-3′)(SEQ ID NO: 137), miR-499-5p (Qiagen, MSY0003482, 5′-[…]-3′) (SEQ ID NO: 3) or Scramble-miR (Dharmacon, CN-001000-01-05) using Lipofectamine 2000 (Invitrogen), and cultured in advanced DMEM/F12 (Invitrogen) containing 5% FBS (Atlanta Biologicals), 0.5% Glutamax (Invitrogen), 0.5% non-essential amino acids and 1% Antibiotic-Antimycotic (Invitrogen) with or without AA (ascorbic acid, Sigma, 0.2 mM) and BMP4 (R&D Systems, 10 ng/ml) for fibroblast reprogramming. Cells on a culture dish spontaneously aggregated as a patch-like CMT on day 10. In the case of no spontaneous formation, the border of a culture dish was scratched and cells were lifted up with a pipette to expedite cell aggregation into a CMT.

aMHC-GFP-MTTFs = experiment: Quantification of GFP+ cells in aMHC-GFP reporter MTTFs; format: cell-based, mouse; settings: for GFP expression (aMHC-GFP): agent alone
Description: as §1
(§3) Mouse tail-tip fibroblasts (MTTFs) isolated from 1-4 month old transgenic mice carrying a GFP reporter driven by αMHC or human ubiquitin C (UBC) promoters were cultured in DMEM/F-12 (Invitrogen) containing 10% FBS (Atlanta Biologicals), 1% Glutamax (Invitrogen), 1% non-essential amino acids (Invitrogen) and 1% Antibiotic-Antimycotic (Invitrogen). αMHC-GFP transgenic mice were kindly given by Dr. Mark Sussman (San Diego State University) and UBC-GFP mice (C57BL/6-Tg(UBC-GFP)30Scha/J) were purchased from the Jackson Laboratory. After 3-5 passages, MTTFs were frozen until use. […]

Myh6 = experiment: mRNA expression of Myh6 (aMHC) in treated MTTFs; format: cell-based, mouse; settings: miRNA with AA and BMP4
Description: as §1, §3

[2] = test system: mouse tail-tip fibroblasts (MTTFs); experiment: Reprogramming of MTTFs with miRNA mimics alone: CM gene expression, ACTN2 immunocytochemistry; format: cell-based; settings: miRNA mimic alone, without AA and BMP4
Excerpt: The reprogramming potential of muscle-specific miRNA mimics, miR-1a-2-5p, miR-208a-3p, miR-208b-3p, miR-208b-5p, and miR-499-5p was investigated in mouse tail-tip fibroblasts (MTTFs). […] Immunocytochemistry confirmed expression of a CM marker sarcomeric α-actinin (ACTN2) in single miRNA transfected cells. However ACTN2 expression was diffuse, sarcomeric organization was poor and spontaneously contracting cells were not observed in any miRNA transfected MTTFs.
as §3

[3] = test system: mouse tail-tip fibroblasts (MTTFs); experiment: qRT-PCR of lineage markers at day 6 (vascular-lineage reprogramming); format: cell-based; settings: protocol with AA and BMP4
Description: as §2, with “Cells on a culture dish spontaneously aggregated as a patch-like CMT on day 10. In the case of no spontaneous formation, the border of a culture dish was scratched and cells were lifted up with a pipette to expedite cell aggregation into a CMT.” left out

miR-208b-5p: synthetic miRNA mimic, Qiagen MSY0017280, 5′-AAGCUUUUUGCUCGCGUUAUGU-3′ (SEQ ID NO: 137) (chemistry not given here)
spontaneously contracting cells [1]: not

O=C1O[C@H]([C@@H](O)CO)C(O)=C1O [AA, (R)-5-((S)-1,2-dihydroxyethyl)-3,4-dihydroxyfuran-2(5H)-one, reference compound]
GFP expression (aMHC-GFP) (aMHC-GFP-MTTFs): did not induce GFP expression

miR-499-5p: synthetic miRNA mimic, Qiagen MSY0003482, 5′-UUAAGACUUGCAGUGAUGUUU-3′ (SEQ ID NO: 3) (listed as RNA, chemistry not given here; listed as Mus musculus)
spontaneously contracting cells [1]: appeared

miR-1a-2-5p: synthetic miRNA mimic, Qiagen MSY0017047, 5′-ACAUACUUCUUUAUGUAGUACCCAUA-3′ (SEQ ID NO: 135) (chemistry not given here)
spontaneously contracting cells [1]: appeared | mRNA expression of Myh6 (Myh6): increased trend

miR-208b-3p: synthetic miRNA mimic, Qiagen MSY0004939, 5′-AUAAGACGAACAAAAGGUUUGU-3′ (SEQ ID NO: 1) (listed as RNA, chemistry not given here; listed as Mus musculus)
spontaneously contracting cells [1]: appeared | expression of CM genes Mef2c, Nkx2-5, Gata4 and Myh6 [2]: most effective | expression of EC and SMC genes (qRT-PCR) [3]: increased expression | mRNA expression of Myh6 (Myh6): significantly increased | GFP expression (aMHC-GFP-positive cells) of MTTFs (aMHC-GFP-MTTFs; miRNA in combination with AA and BMP4): 22.0±2.6%

miR-208a-3p: synthetic miRNA mimic, Qiagen MSY0000520, 5′-AUAAGACGAGCAAAAAGCUUGU-3′ (SEQ ID NO: 136) (chemistry not given here)
spontaneously contracting cells [1]: not

B1: BMP4: secreted disulfide-linked homodimeric BMP-4, a TGF-beta superfamily ligand (R&D Systems) (protein, listed as Homo sapiens)
chain: SPKHHPQRSRKKNKNCRRHSLYVDFSDVGWNDWIVAPPGYQAFYCHGDCPFPLADHLNSTNHAIVQTLVNSVNSSIPKACCVPTELSAISMLYLDEYDKVVLKNYQEMVVEGCGCR
modifications: homodimer
GFP expression (aMHC-GFP) (aMHC-GFP-MTTFs): did not induce GFP expression
